Reference: patent EP0349354A1, “Peptides PF10 to PF19 from a retro virus HIV, method for the synthesis of these peptides and their use, particularly in diagnostics” (INSTITUT PASTEUR, priority 1988, dated 1990)
Where no end group is shown, it is not given here. The star is where a group is joined. Acm = CC(=O)NC*

Columns and labels:
anticorps anti-nef = assay: ELISA for detection of anti-nef antibodies on coated peptides or nef; format: binding, humain
[1] = test system: anticorps anti-protéine F; assay: Western blot test on peptide spots with sera of HIV-1 infected patients; format: binding, humain; parameters: key to réaction avec sérum CHA 1/300, 10µl / réaction avec sérum LOM 1/100, 10µl / réaction avec sérum LOM 1/100, 5µl / réaction avec sérum CHA 1/300, 5µl / réaction avec sérum CHA 1/300, 2µl / réaction avec sérum CHA 1/300, 1µl / réaction avec sérum 1545 1/200, 10µl: ++ signifiant une réaction plus marquée
Protocol: Pour les besoins du test, les différents peptides PF16, PF19, PF13, PF17 utilisés sont dilués à une concentration de 2 mg/ml.
Sur une bande de papier BIORAD pour transblot, on dépose différents spots : 1µl, 2µl, 5µl, 10µl.
Après séchage on pratique un test Western Blot classique en utilisant comme anticorps des sérums de patients infectés par le virus HIV-1, positifs pour la protéine F, à des dilutions variant de 1/100 à 1/300.
Les peptides testés permettent d'aboutir aux résultats résumés dans le tableau 2 avec trois sérums différents anti-F ++ (++ signifiant une réaction plus marquée).

[2] = test system: anticorps, monoclonal anti-protéine F d'un rétrovirus HIV-1; assay: ELISA with mouse monoclonal anti-protein F antibody; format: binding, souris; settings: antibody produced in mouse
Description: Par ailleurs, les inventeurs ont constaté qu'un anticorps, monoclonal anti-protéine F d'un rétrovirus HIV-1 produit chez la souris reconnait le peptide PF16 de l'invention dans un test ELISA.

Q: For “GMDDPEREVLEWRFDSRLAFHHVARELHPEYFKNC(acm) (GMDDPEREVLEWRFDSRLAFHHVARELHPEYFKNC(Acm)) [PF16, protéine F HIV-1, séquence 171-205]”, which “nombre de sérums anti-nef positifs ayant réagi” value (anticorps anti-nef; ELISA, out of 31 anti-nef positive sera) is on record?
A: Its value is 26.

Q: What about the “intensité de l'immunoréactivité (OD), Serum 1” value (anticorps anti-nef; Serum 1, anti-nef positive, 500 ng coated per well) of the same substance?
A: Its value is “+++ (pour OD = 0,8 à 2,0)”.

Q: And the “intensité de l'immunoréactivité (OD), Serum 2” value (anticorps anti-nef; Serum 2, anti-nef positive, 500 ng coated per well)?
A: Its value is “+++ (pour OD = 0,8 à 2,0)”.

Q: What about the “intensité de l'immunoréactivité (OD), Serum 3” value (anticorps anti-nef; Serum 3, anti-nef positive, 500 ng coated per well) of the same substance?
A: Its value is “+ (pour OD = 0,2 à 0,4)”.

Q: What about the “intensité de l'immunoréactivité (OD), Serum 4” value (anticorps anti-nef; Serum 4, anti-nef positive, 500 ng coated per well) of the same substance?
A: The value was “+++ (pour OD = 0,8 à 2,0)”.

Q: What about the “intensité de l'immunoréactivité (OD), Serum 5” value (anticorps anti-nef; Serum 5, anti-nef positive, 500 ng coated per well) of the same substance?
A: The value was “+++ (pour OD = 0,8 à 2,0)”.

Q: And the “intensité de l'immunoréactivité (OD), Serum 6” value (anticorps anti-nef; Serum 6, anti-nef positive, 500 ng coated per well)?
A: Its value is “+++ (pour OD = 0,8 à 2,0)”.

Q: And the “intensité de l'immunoréactivité (OD), Serum 7” value (anticorps anti-nef; Serum 7, anti-nef positive, 500 ng coated per well)?
A: The value was “- (pour une densité optique (OD) inférieure à 0,2)”.

Q: What about the “intensité de l'immunoréactivité (OD), Serum 8” value (anticorps anti-nef; Serum 8, anti-nef positive, 500 ng coated per well) of the same substance?
A: The value was “- (pour une densité optique (OD) inférieure à 0,2)”.

Q: And the “intensité de l'immunoréactivité (OD), Serum 9” value (anticorps anti-nef; Serum 9, anti-nef positive, 500 ng coated per well)?
A: Its value is “- (pour une densité optique (OD) inférieure à 0,2)”.

Q: And the “intensité de l'immunoréactivité (OD), Serum 10” value (anticorps anti-nef; Serum 10, anti-nef positive, 500 ng coated per well)?
A: Its value is “+ (pour OD = 0,2 à 0,4)”.

Q: What about the “intensité de l'immunoréactivité (OD), Serum 11” value (anticorps anti-nef; Serum 11, anti-nef positive, 500 ng coated per well) of the same substance?
A: Its value is “+ (pour OD = 0,2 à 0,4)”.

Q: What about the “intensité de l'immunoréactivité (OD), Serum 12” value (anticorps anti-nef; Serum 12, anti-nef positive, 500 ng coated per well) of the same substance?
A: Its value is “- (pour une densité optique (OD) inférieure à 0,2)”.

Q: What about the “intensité de l'immunoréactivité (OD), Serum 13” value (anticorps anti-nef; Serum 13, anti-nef positive, 500 ng coated per well) of the same substance?
A: Its value is “++ (pour OD = 0,4 à 0,8)”.

Q: And the “intensité de l'immunoréactivité (OD), Serum 14” value (anticorps anti-nef; Serum 14, anti-nef positive, 500 ng coated per well)?
A: Its value is “- (pour une densité optique (OD) inférieure à 0,2)”.

Q: And the “intensité de l'immunoréactivité (OD), Serum 15” value (anticorps anti-nef; Serum 15, anti-nef positive, 500 ng coated per well)?
A: The value was “+++ (pour OD = 0,8 à 2,0)”.

Q: And the “intensité de l'immunoréactivité (OD), Serum 16” value (anticorps anti-nef; Serum 16, anti-nef positive, 500 ng coated per well)?
A: Its value is “+++ (pour OD = 0,8 à 2,0)”.

Q: And the “intensité de l'immunoréactivité (OD), Serum 17” value (anticorps anti-nef; Serum 17, anti-nef positive, 500 ng coated per well)?
A: The value was “++ (pour OD = 0,4 à 0,8)”.

Q: And the “intensité de l'immunoréactivité (OD), Serum 18” value (anticorps anti-nef; Serum 18, anti-nef positive, 500 ng coated per well)?
A: Its value is “+++ (pour OD = 0,8 à 2,0)”.

Q: And the “intensité de l'immunoréactivité (OD), Serum 19” value (anticorps anti-nef; Serum 19, anti-nef positive, 500 ng coated per well)?
A: The value was “+++ (pour OD = 0,8 à 2,0)”.

Q: What about the “intensité de l'immunoréactivité (OD), Serum 20” value (anticorps anti-nef; Serum 20, anti-nef positive, 500 ng coated per well) of the same substance?
A: The value was “++ (pour OD = 0,4 à 0,8)”.

Q: What about the “intensité de l'immunoréactivité (OD), Serum 21” value (anticorps anti-nef; Serum 21, anti-nef positive, 500 ng coated per well) of the same substance?
A: The value was “+++ (pour OD = 0,8 à 2,0)”.

Q: And the “intensité de l'immunoréactivité (OD), Serum 22” value (anticorps anti-nef; Serum 22, anti-nef positive, 500 ng coated per well)?
A: The value was “+++ (pour OD = 0,8 à 2,0)”.

Q: What about the “intensité de l'immunoréactivité (OD), Serum 23” value (anticorps anti-nef; Serum 23, anti-nef positive, 500 ng coated per well) of the same substance?
A: Its value is “++ (pour OD = 0,4 à 0,8)”.

Q: What about the “intensité de l'immunoréactivité (OD), Serum 24” value (anticorps anti-nef; Serum 24, anti-nef positive, 500 ng coated per well) of the same substance?
A: Its value is “+++ (pour OD = 0,8 à 2,0)”.

Q: And the “intensité de l'immunoréactivité (OD), Serum 25” value (anticorps anti-nef; Serum 25, anti-nef positive, 500 ng coated per well)?
A: The value was “+++ (pour OD = 0,8 à 2,0)”.

Q: And the “intensité de l'immunoréactivité (OD), Serum 26” value (anticorps anti-nef; Serum 26, anti-nef positive, 500 ng coated per well)?
A: The value was “+++ (pour OD = 0,8 à 2,0)”.

Q: What about the “intensité de l'immunoréactivité (OD), Serum 27” value (anticorps anti-nef; Serum 27, anti-nef positive, 500 ng coated per well) of the same substance?
A: Its value is “+ (pour OD = 0,2 à 0,4)”.

Q: And the “intensité de l'immunoréactivité (OD), Serum 28” value (anticorps anti-nef; Serum 28, anti-nef positive, 500 ng coated per well)?
A: The value was “++ (pour OD = 0,4 à 0,8)”.

Q: And the “intensité de l'immunoréactivité (OD), Serum 29” value (anticorps anti-nef; Serum 29, anti-nef positive, 500 ng coated per well)?
A: The value was “++ (pour OD = 0,4 à 0,8)”.

Q: What about the “intensité de l'immunoréactivité (OD), Serum 30” value (anticorps anti-nef; Serum 30, anti-nef positive, 500 ng coated per well) of the same substance?
A: The value was “++ (pour OD = 0,4 à 0,8)”.

Q: And the “intensité de l'immunoréactivité (OD), Serum 31” value (anticorps anti-nef; Serum 31, anti-nef positive, 500 ng coated per well)?
A: Its value is “+++ (pour OD = 0,8 à 2,0)”.

Q: And the “intensité de l'immunoréactivité (OD), Serum 32” value (anticorps anti-nef; Serum 32, anti-nef negative control serum, 500 ng coated per well)?
A: The value was “- (pour une densité optique (OD) inférieure à 0,2)”.

Q: What about the “intensité de l'immunoréactivité (OD), Serum 33” value (anticorps anti-nef; Serum 33, anti-nef negative control serum, 500 ng coated per well) of the same substance?
A: Its value is “- (pour une densité optique (OD) inférieure à 0,2)”.

Q: What about the “réaction avec sérum 1545 1/200, 10µl” value ([1]; serum 1545 diluted 1/200, spot 10µl of peptide at 2 mg/ml) of the same substance?
A: The value was “++”.

Q: And the “réaction avec sérum CHA 1/300, 1µl” value ([1]; serum CHA diluted 1/300, spot 1µl of peptide at 2 mg/ml)?
A: The value was “++”.

Q: What about the “réaction avec sérum CHA 1/300, 2µl” value ([1]; serum CHA diluted 1/300, spot 2µl of peptide at 2 mg/ml) of the same substance?
A: Its value is “++”.

Q: And the “réaction avec sérum CHA 1/300, 5µl” value ([1]; serum CHA diluted 1/300, spot 5µl of peptide at 2 mg/ml)?
A: Its value is “++”.

Q: And the “réaction avec sérum CHA 1/300, 10µl” value ([1]; serum CHA diluted 1/300, spot 10µl of peptide at 2 mg/ml)?
A: The value was “++”.

Q: And the “réaction avec sérum LOM 1/100, 5µl” value ([1]; serum LOM diluted 1/100 (column outside the heading of positive sera), spot 5µl of peptide at 2 mg/ml)?
A: The value was “++”.

Q: And the “réaction avec sérum LOM 1/100, 10µl” value ([1]; serum LOM diluted 1/100 (column outside the heading of positive sera), spot 10µl of peptide at 2 mg/ml)?
A: The value was “++”.

Q: What about the “reconnaissance par un anticorps monoclonal anti-protéine F” value [2] of the same substance?
A: The value was “reconnait”.
